For orientation: GI50 means the concentration giving 50% growth inhibition. Low readings indicate more potent growth inhibition, high ones less potent growth inhibition.

Common to all, as to assay type: functional
For one assay, the system named is MCF7. In words: Cytotoxicity against human MCF7 cells.
Another assay relates to NCI-H460. The experiment in a line: Cytotoxicity against human H460 cells.
The next assay deals with SF-268. The experiment in a line: Cytotoxicity against human SF268 cells.

For the molecule `CC(=O)OC(C)(C)/C=C/C(=O)[C@](C)(O)[C@H]1[C@H](O)C[C@@]2(C)[C@@H]3CC=C4[C@@H](C[C@H](O)[C@@H](O)C4(C)C)[C@]3(C)C(=O)C[C@]12C`, the GI50 with MCF7 is 110 nM; with NCI-H460, 65 nM; in the assay with SF-268 it was 87 nM.
For `CC(C)(O)/C=C/C(=O)[C@](C)(O)[C@H]1[C@H](O)C[C@@]2(C)[C@@H]3CC=C4[C@@H](CCC(=O)C4(C)C)[C@]3(C)C(=O)C[C@]12C`, in that order: 41 nM, 32 nM and 210 nM.
For `CC(C)(O)/C=C/C(=O)[C@](C)(O)[C@H]1[C@H](O)C[C@@]2(C)[C@@H]3CC=C4[C@@H](C[C@H](O)C(=O)C4(C)C)[C@]3(C)C(=O)C[C@]12C` [CUCURBITACIN D] the same measures were 20 nM, 13 nM and 21 nM.
